Measured values from patent US20090215826A1, “SOLID FORMS OF A PYRROLIDINE-3,4-DICARBOXAMIDE DERIVATIVE” (priority 2007, published 2009).

Assay: Storage stability of crystalline form B (HPLC, IR, XRPD)
Format: physicochemical
Details: storage for 1 year up to 40° C./75% rh
Protocol: “IR” is used herein as an acronym of Infra Red spectroscopy. IR spectra were recorded as film of a Nujol suspension of approximately 5 mg of sample and few Nujol between two sodium chloride plates, with an FTIR spectrometer in transmittance. The Spectrometer is a Nicolet™ 20SXB or equivalent (resolution 2 cm^−1, 32 or more coadded scans, MCT detector).
“XRPD (is used herein as an acronym of X-Ray Powder Diffraction)” X-ray diffraction patterns were recorded at ambient conditions in transmission geometry with a STOE STADIP diffractometer (Cu Kα radiation, primary monochromator, position sensitive detector, angular range 3° to 42° 2 Theta, approximately 60 minutes total measurement time). The samples were prepared and analyzed without further processing (e.g. grinding or sieving) of the substance. “TGA (is used herein as an acronym of ThermoGravimetric Analysis)” was performed on a Mettler-Toledo™ thermogravimetric analyzer (TGA850 or TGA851). System suitability tests and calibrations were carried out according to the internal standard operation procedure.
The Form B has been characterized with IR and XRPD. The chemical stability was measured by HPLC (high performance liquid chromatography).

- chemical stability (degradation) measured by HPLC: No significant degradation
- crystal form compared to the initial analysis (IR and XRPD): has not been changed
Structure (SMILES): O=C(Nc1ccc(Cl)cn1)[C@H]1CN(CC(F)F)C[C@@H]1C(=O)Nc1ccc(-n2ccccc2=O)cc1F [Form B, (3R,4R)-1-(2,2-Difluoroethyl)-pyrrolidine-3,4-dicarboxylic acid 3-[(5-chloro-pyridin-2-yl)-amide] 4-{[2-fluoro-4-(2-oxo-2H-pyridin-1-yl)-phenyl]-amide}]
